Experimental data: publication PMC5539077, “Functional Characterization of a Missing Branch Component in Haematococcus pluvialis for Control of Algal Carotenoid Biosynthesis” (Frontiers in Plant Science, 2017)

Legend:
HpLCYB = molecular target: T1, HpLCYB (Haematococcus lacustris, UniProt A0A1S6KDX2); test: E. coli complementation, UPLC product profile; format: cell-based; details: lycopene-accumulating E. coli DH5alpha (pACCRT-EIB-B), 30 then 25 °C; product beta-carotene
T1 construct: full ORF, 568 aa, expressed from pACCRT-EIB plasmid in carotenoid-accumulating E. coli DH5alpha; no tag told
T1 sequence (A0A1S6KDX2 1-568): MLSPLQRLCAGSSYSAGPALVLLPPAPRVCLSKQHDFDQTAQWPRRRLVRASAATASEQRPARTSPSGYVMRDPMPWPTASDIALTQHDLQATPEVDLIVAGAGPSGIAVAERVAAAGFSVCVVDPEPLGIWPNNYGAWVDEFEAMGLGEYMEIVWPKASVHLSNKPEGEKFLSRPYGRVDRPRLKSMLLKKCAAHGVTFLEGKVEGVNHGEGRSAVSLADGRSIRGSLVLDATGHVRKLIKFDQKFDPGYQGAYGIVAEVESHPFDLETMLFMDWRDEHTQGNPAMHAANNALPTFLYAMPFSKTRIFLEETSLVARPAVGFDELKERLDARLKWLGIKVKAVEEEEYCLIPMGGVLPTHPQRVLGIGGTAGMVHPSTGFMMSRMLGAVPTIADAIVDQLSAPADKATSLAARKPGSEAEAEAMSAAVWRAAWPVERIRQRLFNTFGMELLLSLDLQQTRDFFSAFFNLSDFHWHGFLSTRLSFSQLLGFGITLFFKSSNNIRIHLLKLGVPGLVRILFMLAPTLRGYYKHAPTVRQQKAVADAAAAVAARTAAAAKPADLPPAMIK

HpLCYE = molecular target: T2, HpLCYE (Haematococcus lacustris, UniProt A0A0K1HSD1); test: E. coli complementation, UPLC product profile; format: cell-based; details: 30 then 25 °C
T2 construct: full ORF, 575 aa, codon-optimised, expressed from pACCRT-EIB plasmid in carotenoid-accumulating E. coli DH5alpha; no tag told
T2 sequence (A0A0K1HSD1 1-575): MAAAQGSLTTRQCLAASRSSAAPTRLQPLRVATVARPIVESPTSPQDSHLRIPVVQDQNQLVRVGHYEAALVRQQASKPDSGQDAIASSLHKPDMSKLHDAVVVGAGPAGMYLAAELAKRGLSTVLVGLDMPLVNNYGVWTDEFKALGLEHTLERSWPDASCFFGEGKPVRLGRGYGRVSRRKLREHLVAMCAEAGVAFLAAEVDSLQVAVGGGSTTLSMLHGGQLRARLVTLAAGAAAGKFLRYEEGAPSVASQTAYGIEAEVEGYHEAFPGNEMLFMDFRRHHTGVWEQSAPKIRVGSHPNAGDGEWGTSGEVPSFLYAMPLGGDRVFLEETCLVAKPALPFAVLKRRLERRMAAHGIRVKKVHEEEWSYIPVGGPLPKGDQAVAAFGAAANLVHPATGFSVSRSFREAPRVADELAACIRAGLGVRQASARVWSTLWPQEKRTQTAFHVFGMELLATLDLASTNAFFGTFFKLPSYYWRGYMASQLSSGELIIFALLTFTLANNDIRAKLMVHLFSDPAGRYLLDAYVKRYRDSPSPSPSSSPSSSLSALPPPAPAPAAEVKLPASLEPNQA

HpLCYB (purified) = HpLCYB (purified) (Haematococcus lacustris, UniProt A0A1S6KDX2); test: in vitro cyclase assay, UPLC; format: biochemical; details: 50 mM gamma-carotene as printed, 0.1 M Tris-HCl pH 7.0, 10% glycerol, 5 mM DTT, 1 mM EDTA, 30 °C, 1 h; product beta-carotene

CC(C)=CCC/C(C)=C/C=C/C(C)=C/C=C/C(C)=C/C=C/C=C(C)/C=C/C=C(C)/C=C/C=C(\C)CCC=C(C)C [lycopene]
E. coli complementation, UPLC product profile (HpLCYB): HpLCYB could cyclize both ends of lycopene to form β-carotene | E. coli complementation, UPLC product profile (HpLCYE; lycopene-accumulating E. coli DH5alpha (pACCRT-EIB-E), product delta-carotene): HpLCYE cyclized only one end of lycopene to synthesize δ-carotene

CC(C)=CCC/C(C)=C/C=C/C(C)=C/C=C/C(C)=C/C=C/C=C(C)/C=C/C=C(\C)CC/C=C(\C)CCC=C(C)C [neurosporene]
E. coli complementation, UPLC product profile (HpLCYE; neurosporene-accumulating E. coli DH5alpha (pACCRT-EIBneurE), product alpha-zeacarotene): neurosporene produced by pACCRT-EIBneur was probably transformed into α-, and β-zeacarotene, respectively

CC(C)=CCC/C(C)=C/C=C/C(C)=C/C=C/C(C)=C/C=C/C=C(C)/C=C/C=C(C)/C=C/C1=C(C)CCCC1(C)C [γ-carotene]
in vitro cyclase assay, UPLC (HpLCYB (purified)): HpLCYB further cyclized γ-carotene to form β-carotene
